The test system of test [1] is wild type AR (MDA 453 cells). As to conditions: read-out: Kd for [3H]-DHT; MDA 453 cells (wild type AR), Scatchard analysis of specific binding. How it is done:
For the saturation analysis, the difference between the total binding and the non-specific binding, is defined as specific binding.
Two replicates are used for each sample. After 4 hours at 37° C., cells are washed, harvested, and counted as described above. […] The K1 values are determined by application of the Cheng-Prusoff equation to the IC50 values, where:
[formula] After correcting for non-specific binding, IC50 values are determined.

For another test, the target named is T1, AR (Rattus norvegicus, UniProt P15207).
T1 sequence (P15207 1-902): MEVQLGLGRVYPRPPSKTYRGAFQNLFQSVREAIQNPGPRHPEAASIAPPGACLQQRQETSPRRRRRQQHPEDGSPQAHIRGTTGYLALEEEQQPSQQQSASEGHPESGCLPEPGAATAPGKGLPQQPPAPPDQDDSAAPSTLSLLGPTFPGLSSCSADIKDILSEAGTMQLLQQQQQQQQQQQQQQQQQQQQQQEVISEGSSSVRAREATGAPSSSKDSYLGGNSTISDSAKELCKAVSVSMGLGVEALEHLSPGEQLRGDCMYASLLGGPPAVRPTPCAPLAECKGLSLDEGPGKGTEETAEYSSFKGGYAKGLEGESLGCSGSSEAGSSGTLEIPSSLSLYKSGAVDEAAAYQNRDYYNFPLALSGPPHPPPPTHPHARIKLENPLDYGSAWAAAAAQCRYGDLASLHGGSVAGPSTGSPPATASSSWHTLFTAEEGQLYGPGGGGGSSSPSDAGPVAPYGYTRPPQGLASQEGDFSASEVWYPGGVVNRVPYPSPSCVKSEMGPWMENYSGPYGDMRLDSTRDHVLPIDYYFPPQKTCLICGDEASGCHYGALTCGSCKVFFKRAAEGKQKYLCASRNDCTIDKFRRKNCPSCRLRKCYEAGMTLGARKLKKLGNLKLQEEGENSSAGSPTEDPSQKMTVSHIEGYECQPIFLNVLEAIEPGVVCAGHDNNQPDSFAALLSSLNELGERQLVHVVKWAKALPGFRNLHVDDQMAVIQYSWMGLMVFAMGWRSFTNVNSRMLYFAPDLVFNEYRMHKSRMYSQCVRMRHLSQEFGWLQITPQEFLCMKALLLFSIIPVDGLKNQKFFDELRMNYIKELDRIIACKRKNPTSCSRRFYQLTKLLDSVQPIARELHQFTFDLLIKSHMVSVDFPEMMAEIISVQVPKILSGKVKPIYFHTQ

One may read the Kd as the equilibrium constant for the complex coming apart.

Turning to “tritiated dihydrotestosterone [[^3H]-DHT]”, the Kd in test [1] was 700 pM. Turning to `CCC(=O)O[C@H]1CC[C@H]2[C@@H]3CCC4=CC(=O)CC[C@]4(C)[C@H]3CC[C@]12C` [TP, testosterone propionate], the “potency relative to free T” value at AR (TP versus free T, organ weight increase) is reported as 10-30 fold. For the same compound, the “EC50 (increase in organ weight, VP and SV)” value on AR (immature castrated rats, dosed for 3 days) is roughly 0.03 mg.

The record behind these values is US7776859B2, “Hexahydroimidazopyrazin-3-one compounds useful as modulators of androgen receptor function” (Bristol-Myers Squibb Company, priority 2005, dated 2010).
